# Measured values from paper PMC11237612, “Mutation of the peptide-regulated transcription factor ComR for amidated peptide specificity and heterologous function in Lactiplantibacillus plantarum WCFS1” (Microbiology Spectrum, 2024).
# System: S. thermophilus ComR containing five mutations (R92G, V205A, S248G, S289K, and I290T)
# Test: GFP signal in E. coli expressing five-mutation ComR
# Assay type: cell-based
# Details: 100 µM peptide, GFP signal (Fig. S3)
# From the text: The selection of mutant ComRs with altered specificity highlighted the utility of the screening system built in E. coli. We attempted to further validate this screening system by cloning a version of S. thermophilus ComR containing five mutations (R92G, V205A, S248G, S289K, and I290T), which was reported to have altered specificity for the 8 amino-acid long XIP from S. vestibularis (VPFFMIYY) ([20]).
# ComR sensor circuits were constructed on plasmid pACYC184 (American Type Culture Collection #37033) such that ComR activation promoted GFP expression. This was done by assembling synthetic dsDNA fragments (Integrated DNA Technology) using NEBuilder® HiFi DNA Assembly Master Mix (NEB, E2621S). The full sequence of plasmid pAC-J23107*-ComR, on which the ComR mutant library was made is included in supplemental materials. The ComR mutant (K100NNK) library was created by PCR amplifying all but the K100 codon and then assembling it with degenerate oligos (Integrated DNA Technology) using NEBuilder® HiFi DNA Assembly Master Mix (NEB, E2621S). […] Bacteria were incubated in a large radius shaker (Eppendorf S441) at 37°C for 9 hours, then GFP fluorescence was read using a TECAN Spark 20M plate reader. […]
sequence,measurement,value
"VPFFMIYY [S. vestibularis XIP, 8 amino-acid long XIP from S. vestibularis (VPFFMIYY)]",GFP signal of five-mutation ComR with S. vestibularis XIP,only a slight increase in GFP signal
